In this test the test system is SJSA-1 cells. The test can be described thus: Cell lysis by peptidomimetic macrocycles (LDH release). In kind it is cell-based. Particulars: SJSA-1, 1 h. The method, then: SJSA-1 cells were plated out one day in advance in clear flat-bottom plates (Costar, catalog number 353072) at 7500 cells/well with 100 ul/well of growth media, leaving row H columns 10-12 empty for media alone. On the day of the assay, media was exchanged with RPMI 1% FBS media, 90 uL of media per well.
10 mM stock solutions of the peptidomimetic macrocycles were prepared in 100% DMSO. Peptidomimetic macrocycles were then diluted serially in 100% DMSO, and then further diluted 20-fold in sterile water to prepare working stock solutions in 5% DMSO/water of each peptidomimetic macrocycle at concentrations ranging from 500 μM to 62.5 μM.
10 μL of each compound was added to the 90 uL of SJSA-1 cells to yield final concentrations of 50 μM to 6.25 μM in 0.5% DMSO-containing media. The negative control (non-lytic) sample was 0.5% DMSO alone and positive control (lytic) samples include 10 μM Melittin and 1% Triton X-100.
Cell plates were incubated for 1 hour at 37° C. After the 1 hour incubation, the morphology of the cells is examined by microscope and then the plates were centrifuged at 1200 rpm for 5 minutes at room temperature. 40 μL of supernatant for each peptidomimetic macrocycle and control sample is transferred to clear assay plates. LDH release is measured using the LDH cytotoxicity assay kit from Caymen, catalog #1000882.
(Release of lactate dehydrogenase indicates damage to the cell membrane.)

Bridge positions count the residues as written; N and C are the ends. Square brackets hold non-standard residues; d marks the D form. Peptide text beside a SMILES is read from it. R8 = C=CCCCCCC[C@@](C)(N)C(=O)O; Chg = N[C@H](C(=O)O)C1CCCCC1; hLeu = CC(C)CC[C@H](N)C(=O)O; S5 = C=CCCC[C@](C)(N)C(=O)O; Nle = CCCC[C@H](N)C(=O)O; Ac3c = NC1(C(=O)O)CC1; Aib = CC(C)(N)C(=O)O

On to `CC[C@H](C)[C@H](NC(=O)[C@H](C)NC(=O)[C@H](C)NC(=O)[C@]1(C)CCCC=CCCCCCC[C@@](C)(NC(=O)[C@H](Cc2ccccc2)NC(=O)[C@@H](NC(=O)[C@H](CC(C)C)NC(C)=O)[C@@H](C)O)C(=O)N[C@@H](CCC(=O)O)C(=O)N[C@@H](Cc2ccc(C(=O)O)cc2)C(=O)N[C@@H](Cc2c[nH]c3cc(Cl)ccc23)C(=O)N[C@@H](C)C(=O)N[C@@H](CCC(N)=O)C(=O)N[C@@H](CC2CCC2)C(=O)N1)C(=O)N[C@H](C)C(N)=O` (single isomer, unassigned) [compound 335], for which the “6.25 μM % Lysed cells (1 h LDH)” value is reported as 0%, the “25 μM % Lysed cells (1 h LDH)” value came to 0% and the “50 μM % Lysed cells (1 h LDH)” value amounted to 1%.

On to `CC(=O)N[C@@H](CC(C)C)C(=O)N[C@H](C(=O)N[C@@H](Cc1ccccc1)C(=O)N[C@]1(C)CCCCCCC=CCCC[C@@](C)(C(=O)N[C@@H](CO)C(=O)N[C@@H](C)C(=O)N[C@H](C(N)=O)C2CCCCC2)NC(=O)[C@H](CC(C)C)NC(=O)[C@H](CCC(N)=O)NC(=O)[C@H](C)NC(=O)[C@H](Cc2c[nH]c3ccccc23)NC(=O)[C@H](Cc2ccc(O)cc2)NC(=O)[C@H](C)NC1=O)[C@@H](C)O` [compound 9] (Ac-LTF[R8]AYWAQL[S5]SA[Chg]-NH2; staple 4-11), for which the “6.25 μM % Lysed cells (1 h LDH)” value is −3%, the “25 μM % Lysed cells (1 h LDH)” value came to 0% and the “50 μM % Lysed cells (1 h LDH)” value came out at 2%.

On to `CC(=O)N[C@@H](CC(C)C)C(=O)N[C@H](C(=O)N[C@@H](Cc1ccccc1)C(=O)N[C@]1(C)CCCCCCC=CCCC[C@@](C)(C(=O)N[C@@H](CO)C(=O)N[C@@H](C)C(=O)N[C@@H](CCC(C)C)C(N)=O)NC(=O)[C@H](CC(C)C)NC(=O)[C@H](CCC(N)=O)NC(=O)[C@H](C)NC(=O)[C@H](Cc2c[nH]c3ccccc23)NC(=O)[C@H](Cc2ccc(O)cc2)NC(=O)[C@H](C)NC1=O)[C@@H](C)O` [compound 6] (Ac-LTF[R8]AYWAQL[S5]SA[hLeu]-NH2; staple 4-11), for which the “6.25 μM % Lysed cells (1 h LDH)” value is listed as 1%, the “25 μM % Lysed cells (1 h LDH)” value amounted to 1% and the “50 μM % Lysed cells (1 h LDH)” value is listed as 1%.

Turning to `CC(=O)N[C@@H](Cc1ccccc1)C(=O)N[C@]1(C)CCCCCCC=CCCC[C@@](C)(C(=O)N[C@@H](C)C(=O)N[C@@H](C)C(=O)NC(C)(C)C(N)=O)NC(=O)[C@H](CC(C)C)NC(=O)C2(CC2)NC(=O)[C@H](CCC(=O)O)NC(=O)[C@H](Cc2c[nH]c3ccccc23)NC(=O)[C@H](Cc2ccc(O)cc2)NC(=O)[C@H](C)NC1=O` [compound 22] (Ac-F[R8]AYWE[Ac3c]L[S5]AA[Aib]-NH2; staple 2-9), the “6.25 μM % Lysed cells (1 h LDH)” value is recorded as 0%, the “25 μM % Lysed cells (1 h LDH)” value was determined as 0% and the “50 μM % Lysed cells (1 h LDH)” value came to 0%.

Take `CC(=O)N[C@@H](Cc1ccccc1)C(=O)N[C@]1(C)CCCCCCC=CCCC[C@@](C)(C(=O)N[C@@H](C)C(=O)N[C@@H](C)C(=O)N[C@@H](Cc2ccccc2)C(N)=O)NC(=O)[C@H](CC(C)C)NC(=O)C2(CC2)NC(=O)[C@H](CCC(=O)O)NC(=O)[C@H](Cc2c[nH]c3ccccc23)NC(=O)[C@H](Cc2ccc(O)cc2)NC(=O)[C@H](C)NC1=O` [compound 18] (Ac-F[R8]AYWE[Ac3c]L[S5]AAF-NH2; staple 2-9): the “6.25 μM % Lysed cells (1 h LDH)” value is 0%, the “25 μM % Lysed cells (1 h LDH)” value was 2% and the “50 μM % Lysed cells (1 h LDH)” value is on record as 4%.

For the compound `CC[C@H](C)[C@H](NC(=O)[C@H](C)NC(=O)[C@H](C)NC(=O)[C@]1(C)CCCC=CCCCCCC[C@@](C)(NC(=O)[C@H](Cc2ccccc2)NC(=O)[C@@H](NC(=O)[C@H](CCC(=O)O)NC(C)=O)[C@@H](C)O)C(=O)N[C@@H](CCC(=O)O)C(=O)N[C@@H](Cc2c[nH]cn2)C(=O)N[C@@H](Cc2c[nH]c3ccccc23)C(=O)N[C@@H](C)C(=O)N[C@@H](CCC(N)=O)C(=O)N[C@@H](CC(C)C)C(=O)N1)C(=O)N[C@H](C)C(N)=O` (single isomer, unassigned) [compound 174], the “6.25 μM % Lysed cells (1 h LDH)” value was 5%, the “25 μM % Lysed cells (1 h LDH)” value was determined as 2% and the “50 μM % Lysed cells (1 h LDH)” value stood at 5%.

`CC[C@H](C)[C@H](NC(=O)[C@H](C)NC(=O)[C@H](C)NC(=O)[C@]1(C)CCCC=CCCCCCC[C@@](C)(NC(=O)[C@H](Cc2ccccc2)NC(=O)[C@@H](NC(=O)[C@H](CC(C)C)NC(C)=O)[C@@H](C)O)C(=O)N[C@@H](CCC(=O)O)C(=O)N[C@@H](Cc2ccc(C(=O)O)cc2)C(=O)N[C@@H](Cc2c[nH]c3cc(Cl)ccc23)C(=O)N[C@@H](C)C(=O)N[C@@H](CCC(N)=O)C(=O)N[C@@H](CC2CCC2)C(=O)N1)C(=O)N[C@H](C)C(N)=O` (single isomer, unassigned) [compound 336]: the “6.25 μM % Lysed cells (1 h LDH)” value was found to be 0%, the “25 μM % Lysed cells (1 h LDH)” value came to 0% and the “50 μM % Lysed cells (1 h LDH)” value was 0%.

`CCCC[C@H](NC(=O)[C@H](C)NC(=O)[C@H](CO)NC(=O)[C@]1(C)CCCC=CCCCCCC[C@@](C)(NC(=O)[C@H](Cc2ccccc2)NC(=O)[C@@H](NC(=O)[C@H](CC(C)C)NC(C)=O)[C@@H](C)O)C(=O)N[C@@H](C)C(=O)N[C@@H](Cc2ccc(O)cc2)C(=O)N[C@@H](Cc2c[nH]c3ccccc23)C(=O)N[C@@H](C)C(=O)N[C@@H](CCC(N)=O)C(=O)N[C@@H](CC(C)C)C(=O)N1)C(N)=O` [compound 3] (Ac-LTF[R8]AYWAQL[S5]SA[Nle]-NH2; staple 4-11): the “6.25 μM % Lysed cells (1 h LDH)” value was determined as 1%, the “25 μM % Lysed cells (1 h LDH)” value is listed as 1% and the “50 μM % Lysed cells (1 h LDH)” value was determined as 3%.

For the compound `CCCC[C@H](NC(=O)[C@H](C)NC(=O)[C@H](CCC(N)=O)NC(=O)[C@H](Cc1c[nH]cn1)NC(=O)[C@]1(C)CCCC=CCCCCCC[C@@](C)(NC(=O)[C@H](Cc2ccccc2)NC(C)=O)C(=O)N[C@@H](C)C(=O)N[C@@H](Cc2ccc(O)cc2)C(=O)N[C@@H](Cc2c[nH]c3ccccc23)C(=O)N[C@@H](CO)C(=O)N[C@@H](C)C(=O)N[C@@H](CC(C)C)C(=O)N1)C(N)=O` [compound 39] (Ac-F[R8]AYWSAL[S5]HQA[Nle]-NH2; staple 2-9), the “6.25 μM % Lysed cells (1 h LDH)” value was 0%, the “25 μM % Lysed cells (1 h LDH)” value amounted to 0% and the “50 μM % Lysed cells (1 h LDH)” value worked out at 3%.

Take `CC(C)CC[C@@H]1NC(=O)[C@H](CCC(N)=O)NC(=O)[C@H](C)NC(=O)[C@H](Cc2c[nH]c3ccccc23)NC(=O)[C@H](Cc2ccc(O)cc2)NC(=O)[C@H](CCC(=O)O)NC(=O)[C@](C)(NC(=O)[C@H](Cc2ccccc2)NC(=O)[C@@H](NC(=O)[C@H](CC(C)C)NC(=O)CN(C)C)[C@@H](C)O)CCCCCCC=CCCC[C@@](C)(C(=O)N[C@@H](CO)C(=O)N[C@@H](C)C(=O)N[C@@H](C)C(N)=O)NC1=O` [compound 279]: the “6.25 μM % Lysed cells (1 h LDH)” value is reported as 6%, the “25 μM % Lysed cells (1 h LDH)” value was 5% and the “50 μM % Lysed cells (1 h LDH)” value stood at 6%.

As for `CC[C@H](C)[C@H](NC(=O)[C@H](C)NC(=O)[C@H](C)NC(=O)[C@]1(C)CCCC=CCCCCCC[C@@](C)(NC(=O)[C@H](Cc2ccccc2)NC(=O)[C@@H](NC(=O)[C@H](CC(C)C)NC(C)=O)[C@@H](C)O)C(=O)N[C@@H](C)C(=O)N[C@@H](Cc2ccc(C(=O)O)cc2)C(=O)N[C@@H](Cc2c[nH]c3ccccc23)C(=O)N[C@@H](C)C(=O)N[C@@H](CCC(N)=O)C(=O)N[C@@H](CC(C)C)C(=O)N1)C(=O)N[C@H](C)C(N)=O` (single isomer, unassigned) [compound 182], the “6.25 μM % Lysed cells (1 h LDH)” value is listed as 0%, the “25 μM % Lysed cells (1 h LDH)” value was 3% and the “50 μM % Lysed cells (1 h LDH)” value is recorded as 6%.

For the compound `CC[C@H](C)[C@H](NC(=O)[C@H](C)NC(=O)[C@H](C)NC(=O)[C@]1(C)CCCC=CCCCCCC[C@@](C)(NC(=O)[C@H](Cc2ccccc2)NC(C)=O)C(=O)N[C@@H](C)C(=O)N[C@@H](Cc2ccc(O)cc2)C(=O)N[C@@H](Cc2c[nH]c3ccccc23)C(=O)N[C@@H](CCC(=O)O)C(=O)NC2(CC2)C(=O)N[C@@H](CC(C)C)C(=O)N1)C(N)=O` [compound 19] (Ac-F[R8]AYWE[Ac3c]L[S5]AAI-NH2; staple 2-9), the “6.25 μM % Lysed cells (1 h LDH)” value amounted to 2%, the “25 μM % Lysed cells (1 h LDH)” value is recorded as 3% and the “50 μM % Lysed cells (1 h LDH)” value was 21%.

For `CC(=O)N[C@@H](CC(C)C)C(=O)N[C@H](C(=O)N[C@@H](Cc1ccccc1)C(=O)N[C@]1(C)CCCCCCC=CCCC[C@@](C)(C(=O)N[C@@H](CO)C(=O)N[C@@H](C)C(=O)N[C@@H](C)C(N)=O)NC(=O)[C@H](CC(C)C)NC(=O)[C@H](CCC(N)=O)NC(=O)[C@H](C)NC(=O)[C@H](Cc2c[nH]c3ccccc23)NC(=O)[C@H](Cc2ccc(C(=O)O)cc2)NC(=O)[C@H](C)NC1=O)[C@@H](C)O` (single isomer, unassigned) [compound 169], the “6.25 μM % Lysed cells (1 h LDH)” value came to 2%, the “25 μM % Lysed cells (1 h LDH)” value was found to be 3% and the “50 μM % Lysed cells (1 h LDH)” value came to 7%.

For the compound `CC[C@H](C)[C@H](NC(=O)[C@H](C)NC(=O)[C@H](C)NC(=O)[C@]1(C)CCCC=CCCCCCC[C@@](C)(NC(=O)[C@H](Cc2ccccc2)NC(=O)[C@@H](NC(=O)[C@H](CC(C)C)NC(C)=O)[C@@H](C)O)C(=O)N[C@@H](C)C(=O)N[C@@H](Cc2ccc(O)cc2)C(=O)N[C@@H](Cc2c[nH]c3ccccc23)C(=O)N[C@@H](C)C(=O)N[C@@H](CCC(N)=O)C(=O)N[C@@H](CC(C)C)C(=O)N1)C(=O)N[C@H](CC(C)C)C(N)=O` (single isomer, unassigned) [compound 82], the “6.25 μM % Lysed cells (1 h LDH)” value came to 0%, the “25 μM % Lysed cells (1 h LDH)” value worked out at 0% and the “50 μM % Lysed cells (1 h LDH)” value was determined as 1%.

These data come from patent US20200369728A1, “PEPTIDOMIMETIC MACROCYCLES AND USES THEREOF” (Aileron Therapeutics, Inc., priority 2015, published 2020).
